Test results reported in US11590087B2, “Cannabidiol-type cannabinoid compound” (GW Research Limited, priority 2019, dated 2023).

Assays:
[1] = test system: tonic hind limb extensor convulsions; experiment: Maximal electroshock seizure threshold (MEST) test in the mouse; details: for % change from vehicle (CC50) / CC50 ± SEM: mouse
Experimental: The efficacy of 6-OH CBDV was tested in a mouse model of generalised seizure, the maximal electroshock seizure threshold (MEST) test.
The maximal electroshock seizure threshold (MEST) test is widely utilized preclinically to evaluate pro- or anti-convulsant properties of test compounds (Loscher et al., 1991).
In the MEST test the ability of a drug to alter the seizure threshold current required to induce hind limb tonic extensor convulsions is measured according to an “up and down” method of shock titration (Kimball et al., 1957). An increase in seizure threshold is indicative of anti-convulsant effect.
The ability of a test compound to alter the stimulus intensity, expressed as current (mA), required to induce the presence of tonic hind limb extensor convulsions, is assessed in the MEST.
Naïve mice were acclimatised to the procedure room in their home cages for up to 7 days, with food and water available ad libitum.
All animals were weighed at the beginning of the study and randomly assigned to treatment groups based on a mean distribution of body weight across groups.
The first animal within a treatment group was given a shock at the expected or estimated CC50 current. For subsequent animals, the current was lowered or raised depending on the convulsions outcome from the preceding animal.
Data generated from each treatment group were used to calculate the CC50±SEM values for the treatment group.
Vehicle: (5% ethanol, 5% solutol, 90% Saline) was prepared as follows: 2 mL of ethanol, 2 mL of solutol were warmed to 60° C., in 36 mL of saline (1:1:18).
The test compound, alpha 6-OH CBDV was prepared according to the method described in Example 1. 6-OH CBDV was administered at 3, 10 and 30 mg/kg (i.p.) in a 1:1:18 ethanol:soluto:0.9% saline formulation.
6-OH CBDV effects were also calculated as percentage change in CC50 from the vehicle control group.
Significant difference between drug-treated animals and controls were assessed according to Litchfield and Wilcoxon (1949).

[2] = test system: tonic hind limb extensor seizure; experiment: Supramaximal electroshock seizure (MES) test in the mouse; assay type: in vivo
Source text: The supramaximal electroshock seizure ([…]) test is widely utilized preclinically to evaluate anti-convulsant properties of molecules and standard anti-epileptic drugs (Loscher et al., 1991).
The MES test is a very stringent model in which mice receive a predetermined high-level electrical stimulus of sufficient intensity to reliably produce tonic hindlimb extensor seizures in 100% of control animals. As such the MES test is a rigorous evaluation of anticonvulsant activity (Swinyard, 1985).
Animals were dosed i.p. according to treatment group.
The vehicle (10 ml/kg i.p. 60 min pre-treatment time) was 1:1:18 vehicle 5% ethanol, 5% kolliphor EL, 90% saline.
The test compound, 6-OH CBDV was administered at doses of 3, 10, 30, and 100 mg/kg given at 10 ml/kg i.p. 60 min pre-treatment time.
The positive control valproate was used at 250 mg/kg (10 ml/kg i.p. 30 min pre-treatment time).
Induction of seizure is measured as an all-or-nothing effect scored as either present (+) or absent (0) for each animal.
Data was collected by an observer unaware of the treatment for each animal and was expressed as the number of +'s or 0's for each treatment group.
The percentage inhibition of relevant vehicle treated group (the protection relative to vehicle treated controls) was then generated.
Significant differences between individual treatment groups and vehicle-treated groups were assessed using 2-tailed Fisher's Exact Probability test (p<0.05 considered significant).

[3] = 250 mg/kg i.p., 30 min pre-treatment
[4] = 3 mg/kg i.p., 15 min pre-treatment
[5] = 10 mg/kg i.p., 15 min pre-treatment
[6] = 30 mg/kg i.p., 30 min pre-treatment

## CN1C(=O)CN=C(c2ccccc2)c2cc(Cl)ccc21 [Diazepam, diazepam, reference compound]
[1]; 2.5 mg/kg i.p., 30 min pre-treatment
  % change from vehicle (CC50): 124%

## CCCC(CCC)C(=O)[O-].[Na+] [Valproate, sodium valproate, reference compound]
[2]; [3]
  % change from vehicle: 100%
[2]; 250 mg/kg i.p., 30 minutes before the test
  Induction of seizure (present/absent): all animals were scored as not having a seizure
[1]; [3]
  % change from vehicle (CC50): 997%

## C=C(C)[C@@H]1CC(O)C(C)=C[C@H]1c1c(O)cc(CCC)cc1O (stereo partly drawn) [6-OH CBDV, Alpha 6-hydroxy cannabidivarin]
[2]; 3 mg/kg i.p., 60 min pre-treatment
  % change from vehicle: 20%
[2]; 10 mg/kg i.p., 60 min pre-treatment
  % change from vehicle: 20%
[2]; 30 mg/kg i.p., 60 min pre-treatment
  % change from vehicle: 100%
[2]; 30 mg/kg i.p., 60 minutes before the test
  Induction of seizure (present/absent): enabled all mice to withstand seizures
[2]; 100 mg/kg i.p., 60 min pre-treatment
  % change from vehicle: 100%
[2]; 100 mg/kg i.p., 60 minutes before the test
  Induction of seizure (present/absent): enabled all mice to withstand seizures
[1]; [4]
  % change from vehicle (CC50): 111%
  CC50 ± SEM: 54.2 ± 1.4 mA
[1]; [5]
  % change from vehicle (CC50): 147%
  CC50 ± SEM: 63.5 ± 3.4 mA
[1]; [6]
  % change from vehicle (CC50): 260%
  CC50 ± SEM: 92.5 ± 0.4 mA
[1]; mouse, 3, 10 and 30 mg/kg i.p.
  Effect on MEST (seizure threshold) across doses: dose-related increase in MEST
